# Measured values reported in ChEMBL document CHEMBL1131281, “Cyclopentanedi- and tricarboxylic acids as squalene synthase inhibitors: syntheses and evaluation” (Bioorg Med Chem Lett, 1998).
# Biological target: T1, Squalene synthase (Rattus norvegicus) (UniProt Q02769)
# T1 sequence (whole entry): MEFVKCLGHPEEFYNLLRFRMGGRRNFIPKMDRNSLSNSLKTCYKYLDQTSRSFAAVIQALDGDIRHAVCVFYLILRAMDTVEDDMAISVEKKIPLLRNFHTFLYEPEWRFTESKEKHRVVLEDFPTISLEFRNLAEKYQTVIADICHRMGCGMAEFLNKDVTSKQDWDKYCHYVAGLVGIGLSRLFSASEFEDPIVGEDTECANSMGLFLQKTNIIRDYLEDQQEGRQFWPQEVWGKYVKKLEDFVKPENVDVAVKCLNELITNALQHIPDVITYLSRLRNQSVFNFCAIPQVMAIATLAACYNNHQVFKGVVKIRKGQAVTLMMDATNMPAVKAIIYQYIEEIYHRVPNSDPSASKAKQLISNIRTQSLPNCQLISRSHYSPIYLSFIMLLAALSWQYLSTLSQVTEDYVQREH
# Test: Percent inhibition of squalene synthase from rat liver microsomes using [3H]farnesyl pyrophosphate (FPP) as substrate at 1 uM concentration; call rule not given here
row,inhibition [%],SMILES
1,25,CCCN(Cc1ccc(Oc2ccccc2)cc1)C(=O)[C@H]1C[C@@H](C(=O)N(CCC)Cc2ccc(Oc3ccccc3)cc2)[C@@](CC(=O)O)(C(=O)O)[C@H]1C(=O)O
2,45,CCCN(Cc1ccc(Oc2ccccc2)cc1)C(=O)[C@@H]1[C@@H](C(=O)N(CCC)Cc2ccc(Oc3ccccc3)cc2)[C@H](C(=O)O)C[C@@H]1C(=O)O
3,24,CCCN(Cc1ccc(Oc2ccccc2)cc1)C(=O)[C@@H]1[C@@H](C(=O)N(CCC)Cc2ccc(Oc3ccccc3)cc2)[C@@H](C(=O)O)C[C@@H]1C(=O)O
4,44,CCCN(Cc1ccc(Oc2ccccc2)cc1)C(=O)[C@H]1C[C@@H](C(=O)N(CCC)Cc2ccc(Oc3ccccc3)cc2)[C@@](CC(=O)O)(C(=O)O)C1
5,38,CCCN(Cc1ccc(Oc2ccccc2)cc1)C(=O)[C@H]1C[C@@H](C(=O)N(CCC)Cc2ccc(Oc3ccccc3)cc2)[C@@](CC(=O)O)(C(=O)O)[C@@H]1C(=O)O

# Biological target: T2, Squalene synthase (Rattus norvegicus, UniProt Q02769)
# T2 sequence (Q02769 whole entry): T1 sequence (whole entry)
# Test: Compound was tested for inhibition of squalene synthase from rat liver microsomes using [3H]farnesyl pyrophosphate (FPP) as substrate
row,IC50 [µM],SMILES
1,9.1,CCCN(Cc1ccc(Oc2ccccc2)cc1)C(=O)[C@@H]1[C@H](C(=O)N(CCC)Cc2ccc(Oc3ccccc3)cc2)[C@H](C(=O)O)C[C@@H]1C(=O)O
2,2.9,CCCN(Cc1ccc(Oc2ccccc2)cc1)C(=O)[C@H]1[C@@H](C(=O)O)[C@@H](C(=O)N(CCC)Cc2ccc(Oc3ccccc3)cc2)C[C@H]1C(=O)O
3,3,CCCN(Cc1ccc(Oc2ccccc2)cc1)C(=O)[C@H]1[C@@H](C(=O)O)[C@H](C(=O)O)O[C@@H]1C(=O)N(CCC)Cc1ccc(Oc2ccccc2)cc1
4,0.58,CCCN(Cc1ccc(Oc2ccccc2)cc1)C(=O)[C@H]1C[C@@H](C(=O)N(CCC)Cc2ccc(Oc3ccccc3)cc2)[C@H](C(=O)O)[C@H]1C(=O)O
5,0.24,CCCN(Cc1ccc(Oc2ccccc2)cc1)C(=O)[C@H]1C[C@@H](C(=O)N(CCC)Cc2ccc(Oc3ccccc3)cc2)[C@](CC(=O)O)(C(=O)O)[C@H]1C(=O)O
6,0.17,CCCN(Cc1ccc(Oc2ccccc2)cc1)C(=O)[C@H]1C[C@H](C(=O)N(CCC)Cc2ccc(Oc3ccccc3)cc2)[C@H](C(=O)O)[C@H]1C(=O)O

# Biological target: T2, Squalene synthase
# Test: Percent inhibition of squalene synthase from rat liver microsomes using [3H]farnesyl pyrophosphate (FPP) as substrate; NA indicates <20% inhibition at 1 uM concentration
row,IC50,SMILES
1,Not Active,CCCN(Cc1ccc(Oc2ccccc2)cc1)C(=O)[C@H]1C[C@@H](C(=O)N(CCC)Cc2ccc(Oc3ccccc3)cc2)[C@](CC(=O)O)(C(=O)O)C1
2,Not Active,CCCN(Cc1ccc(Oc2ccccc2)cc1)C(=O)[C@@H]1[C@H](C(=O)O)[C@@H](C(=O)N(CCC)Cc2ccc(Oc3ccccc3)cc2)O[C@H]1C(=O)O
